In US4649911A, “Small particle aerosol generator for treatment of respiratory disease including the lungs” (Baylor College of Medicine, priority 1986, dated 1987):

Settings: human, in vivo
Method: The following hematologic studies were performed at admission and at discharge from the hospital: hematocrit, red cell count, white cell count, differential white cell count, hemoglobin concentration and reticulocyte count. Biochemical tests as follows were performed on admission, at discharge, and one month later: indirect bilirubin, direct bilirubin, total bilirubin, blood urea nitrogen, creatinine, glucose, calcium, phosphorus, albumin, total protein, alkaline phcsphatase, serum aspartate transminase (ASP), and serum alanine transaminase (ALT), lactic dehydrogenase (LDH), creatine phosphokinase (CPK), uric acid, and aldolase.
Clinical chemical tests were performed on 14 treated and 17 control patients at admission; at discharge there were 13 treated and 15 controls, and at one month there were 11 and 17 sets of tests performed.

NC(=O)c1ncn([C@@H]2O[C@H](CO)[C@@H](O)[C@H]2O)n1 [ribavirin]
absolute lymphocyte count: more than doubled
